Experiments:
[1] = Selectivity index, ratio of IC50 for rat L6 cells to IC50 for Trypanosoma brucei rhodesiense STIB900; format: toxicity, cell-based; details: read-out: Ratio IC50
[2] = tested on: Trypanosoma brucei rhodesiense; assay: Antitrypanosomal activity against Trypanosoma brucei rhodesiense STIB900 by Alamar blue growth inhibition assay; format: functional, organism-based
L6 = assay: Cytotoxicity against rat L6 cells; format: cell-based

CCCn1c2ccc([N+](=O)[O-])cc2c(=O)n1Cc1ccccc1
selectivity ratio [1]: 3.9
IC50 [2]: 20 µM
IC50 (L6): 77.4 µM

CN(C)CCCOc1nn(Cc2ccccc2F)c2ccc([N+](=O)[O-])cc12
selectivity ratio [1]: 6.1
IC50 [2]: 5.2 µM
IC50 (L6): 32 µM

O=c1[nH]n(Cc2ccccc2F)c2ccc([N+](=O)[O-])cc12
selectivity ratio [1]: 1.3
IC50 [2]: 168 µM
IC50 (L6): 210 µM

O=C(NN1Cc2ccccc2CN1)c1cc([N+](=O)[O-])ccc1Cl
selectivity ratio [1]: 2.2
IC50 [2]: 82.2 µM
IC50 (L6): 180 µM

O=c1c2cc([N+](=O)[O-])ccc2[nH]n1Cc1ccccn1
selectivity ratio [1]: 1.1
IC50 [2]: 252 µM
IC50 (L6): 286 µM

O=[N+]([O-])c1ccc2c(c1)c(OCc1ccccc1)nn2Cc1ccccc1-c1ccccc1Cn1nc(OCc2ccccc2)c2cc([N+](=O)[O-])ccc21
selectivity ratio [1]: > 1.7
IC50 [2]: 80.5 µM
IC50 (L6): > 139 µM

[O-]C1=N[N+]2(CCCCC2)c2ccccc21
IC50 [2]: > 494 µM
IC50 (L6): > 494 µM

CN1C(=O)C2Cc3ccccc3CCN2c2ccc([N+](=O)[O-])cc21 (stereo not drawn)
selectivity ratio [1]: 0.2
IC50 [2]: 63.4 µM
IC50 (L6): 15.1 µM

CN(C)CCOc1nn(Cc2ccccc2)c2ccc([N+](=O)[O-])cc12
selectivity ratio [1]: 5.3
IC50 [2]: 10.8 µM
IC50 (L6): 57.6 µM

O=C(NN1CCCCC1)c1cc([N+](=O)[O-])ccc1Cl
selectivity ratio [1]: > 1.7
IC50 [2]: 212 µM
IC50 (L6): > 352 µM

O=C(NN(Cc1ccccc1)Cc1ccccc1)c1cc([N+](=O)[O-])ccc1F
selectivity ratio [1]: 1.1
IC50 [2]: 17.1 µM
IC50 (L6): 19.3 µM

Cn1[nH]c(=O)c2cc([N+](=O)[O-])ccc21
selectivity ratio [1]: > 1.7
IC50 [2]: 313 µM
IC50 (L6): > 517 µM

CON1C(=O)C2CCCCN2c2ccc([N+](=O)[O-])cc21 (stereo not drawn)
selectivity ratio [1]: 0.6
IC50 [2]: 122 µM
IC50 (L6): 67.4 µM

O=C(NN(Cc1ccccc1)Cc1ccccc1)c1ccccc1 [N',N'-DIBENZYLBENZOHYDRAZIDE]
IC50 [2]: > 316 µM
IC50 (L6): > 316 µM

O=C(NN(Cc1ccccc1)Cc1ccccc1)c1cc([N+](=O)[O-])ccc1Cl
selectivity ratio [1]: 1.1
IC50 [2]: 37.6 µM
IC50 (L6): 41.7 µM

CN1C(=O)C2Cc3ccccc3CN2c2ccc([N+](=O)[O-])cc21 (stereo not drawn)
selectivity ratio [1]: 0.3
IC50 [2]: 61.1 µM
IC50 (L6): 18.7 µM

CN1C(=O)C2CCCCN2c2ccc([N+](=O)[O-])cc21 (stereo not drawn)
selectivity ratio [1]: 0.7
IC50 [2]: 154 µM
IC50 (L6): 102 µM

COc1nn(Cc2ccccc2Cn2nc(OC)c3ccccc32)c2ccccc12
selectivity ratio [1]: 0.4
IC50 [2]: 101 µM
IC50 (L6): 44.7 µM

O=c1c2cc([N+](=O)[O-])ccc2n2n1Cc1ccccc1CC2
selectivity ratio [1]: > 4
IC50 [2]: 86.4 µM
IC50 (L6): > 338 µM

COc1cc([C@@H]2c3cc4c(cc3[C@H](O)[C@H]3COC(=O)[C@H]23)OCO4)cc(OC)c1OC [PODOFILOX]
IC50 (L6): 0.019 µM

O=C(Cc1cc([N+](=O)[O-])ccc1F)NN1Cc2ccccc2C1
selectivity ratio [1]: 0.9
IC50 [2]: 180 µM
IC50 (L6): 168 µM

Cn1c2ccc([N+](=O)[O-])cc2c(=O)n1Cc1ccccc1
selectivity ratio [1]: 5.3
IC50 [2]: 8.2 µM
IC50 (L6): 43.4 µM

Cn1c(=O)c2cc([N+](=O)[O-])ccc2n1Cc1ccccc1
selectivity ratio [1]: 1
IC50 [2]: 163 µM
IC50 (L6): 166 µM

COc1nn(Cc2ccccc2F)c2ccc([N+](=O)[O-])cc12
selectivity ratio [1]: > 1.7
IC50 [2]: 191 µM
IC50 (L6): > 332 µM

O=[N+]([O-])c1ccc2c(c1)CC([O-])=N[N+]21CCCCC1
selectivity ratio [1]: 1.6
IC50 [2]: 198 µM
IC50 (L6): 324 µM

CN(C)NC(=O)c1cc([N+](=O)[O-])ccc1Cl
IC50 [2]: > 410 µM
IC50 (L6): > 410 µM

COc1nn(Cc2cccc(Cn3nc(OC)c4cc([N+](=O)[O-])ccc43)n2)c2ccc([N+](=O)[O-])cc12
selectivity ratio [1]: 2.6
IC50 [2]: 57.6 µM
IC50 (L6): 151 µM

CSc1ccc(OCc2ncc([N+](=O)[O-])n2C)cc1 [FEXINIDAZOLE]
selectivity ratio [1]: > 322
IC50 [2]: 1.71 µM

O=[N+]([O-])c1ccc2[nH]nc(OCc3ccccc3Cl)c2c1
selectivity ratio [1]: 0.4
IC50 [2]: 73.4 µM
IC50 (L6): 30.5 µM

O=C(NN(c1ccccc1)c1ccccc1)c1cc([N+](=O)[O-])ccc1F
selectivity ratio [1]: 0.6
IC50 [2]: 5.6 µM
IC50 (L6): 3.2 µM

O=C1C[N+]2(CCCCC2)c2ccc([N+](=O)[O-])cc21
selectivity ratio [1]: 0.4
IC50 [2]: 213 µM
IC50 (L6): 84.9 µM

O=C(NN(c1ccccc1)c1ccccc1)c1cc([N+](=O)[O-])ccc1Cl
selectivity ratio [1]: 1.8
IC50 [2]: 7.4 µM
IC50 (L6): 13.3 µM

O=c1c2cc([N+](=O)[O-])ccc2n(Cc2ccccc2)n1Cc1ccccc1
selectivity ratio [1]: 0.8
IC50 [2]: 49.5 µM
IC50 (L6): 37.3 µM

C[n+]1cccc2c(=O)n3n(c21)Cc1ccccc1C3
selectivity ratio [1]: > 1.1
IC50 [2]: 241 µM
IC50 (L6): > 263 µM

O=C(NN(Cc1ccccc1)Cc1ccccc1)c1ccccc1Cl
selectivity ratio [1]: 0.9
IC50 [2]: 55.9 µM
IC50 (L6): 50.7 µM

O=[N+]([O-])c1ccc2c(c1)C([O-])=N[N+]21CCCCCC1
selectivity ratio [1]: > 2
IC50 [2]: 192 µM
IC50 (L6): > 382 µM

O=C(NN1Cc2ccccc2C1)c1ccccc1
selectivity ratio [1]: 0.2
IC50 [2]: > 419 µM
IC50 (L6): 68.4 µM

COc1nn(Cc2ccccc2Cn2nc(OC)c3cc([N+](=O)[O-])ccc32)c2ccc([N+](=O)[O-])cc12
selectivity ratio [1]: > 1.7
IC50 [2]: 119 µM
IC50 (L6): > 204 µM

O=c1c2cc([N+](=O)[O-])ccc2[nH]n1Cc1ccccc1
selectivity ratio [1]: 1.4
IC50 [2]: 163 µM
IC50 (L6): 234 µM

O=C(NN1Cc2ccccc2C1)c1ccccc1F
selectivity ratio [1]: 1.5
IC50 [2]: 166 µM
IC50 (L6): 241 µM

Cn1c2ccc([N+](=O)[O-])cc2c(=O)n1-c1ccccc1
selectivity ratio [1]: 0.5
IC50 [2]: 138 µM
IC50 (L6): 66.5 µM

O=C(NN1Cc2ccccc2C1)c1cc([N+](=O)[O-])ccc1Cl
selectivity ratio [1]: 0.2
IC50 [2]: 97.3 µM
IC50 (L6): 19.8 µM

O=c1c2cc([N+](=O)[O-])ccc2n2n1Cc1ccccc1C2
selectivity ratio [1]: 3.3
IC50 [2]: 66.8 µM
IC50 (L6): 222 µM

O=C(NN1CCc2ccccc2C1)c1cc([N+](=O)[O-])ccc1F
selectivity ratio [1]: > 13.7
IC50 [2]: 23.1 µM
IC50 (L6): > 317 µM

CCOc1ccc([N+](=O)[O-])cc1C(=O)NN(c1ccccc1)c1ccccc1
selectivity ratio [1]: 13
IC50 [2]: 14.2 µM
IC50 (L6): 185 µM

O=C1CN(CCCCCN2CCCCC2)c2ccc([N+](=O)[O-])cc2N1
selectivity ratio [1]: 4.6
IC50 [2]: 21.2 µM
IC50 (L6): 97.1 µM

O=C(NN1CCc2ccccc2C1)c1cc([N+](=O)[O-])ccc1Cl
selectivity ratio [1]: 0.4
IC50 [2]: 55.5 µM
IC50 (L6): 22 µM

O=C(Cc1cc([N+](=O)[O-])ccc1F)NN1CCCCC1
selectivity ratio [1]: > 1.1
IC50 [2]: 320 µM
IC50 (L6): > 355 µM

O=C(NN1Cc2ccccc2C1)c1cc([N+](=O)[O-])ccc1F
selectivity ratio [1]: > 8.3
IC50 [2]: 40.2 µM
IC50 (L6): > 331 µM

CN1C(=O)CN(CCCCCN2CCCCC2)c2ccc([N+](=O)[O-])cc21
selectivity ratio [1]: 3.6
IC50 [2]: 14.6 µM
IC50 (L6): 52.3 µM

O=C(NN1Cc2ccccc2C1)c1cccnc1Cl
IC50 [2]: > 365 µM
IC50 (L6): > 365 µM

O=c1[nH]n(-c2ccccc2)c2ccc([N+](=O)[O-])cc12
selectivity ratio [1]: 1.4
IC50 [2]: 109 µM
IC50 (L6): 158 µM

CCCCn1c2ccc([N+](=O)[O-])cc2c(=O)n1Cc1ccccc1
selectivity ratio [1]: 1
IC50 [2]: 48.9 µM
IC50 (L6): 46.7 µM

CN1C(=O)C2=Cc3ccccc3CCN2c2ccc([N+](=O)[O-])cc21
selectivity ratio [1]: > 1.6
IC50 [2]: 191 µM
IC50 (L6): > 311 µM

O=C(NCc1cc([N+](=O)[O-])ccc1N1CCc2ccccc2C1)NCc1cc([N+](=O)[O-])ccc1N1CCc2ccccc2C1
selectivity ratio [1]: > 23.6
IC50 [2]: 7.1 µM
IC50 (L6): > 168 µM
